Values quoted from earlier work as cited in patent US20080195230A1, “Pericardial tissue sheet” (priority 2007, published 2008).

What was measured:
3T3 fibroblasts = details: in vitro
[1] = system: Chinese hamster ovary (CHO-K1) cells; details: in vitro
rabbit = details: i.v.

Compound	cytotoxicity compared with glutaraldehyde (3T3 fibroblasts)	genotoxicity (clastogenic response) [1]	LD50 (rabbit)	solubility in organic solvents (alcohol, acetic acid, acetone)	solubility in water (water)
COC(=O)C1=CO[C@@H](O)[C@@H]2C(CO)=CC[C@H]12 [genipin]	substantially less cytotoxic than glutaraldehyde	does not cause clastogenic response	–	–	–
Deoxycholic acid	–	–	15 mg/kg	soluble in alcohol and to a lesser extent acetone and glacial acetic acid	sparingly soluble in water
